Assay results taken from patent US10039806B2, “Methods and compositions for treating antiprogestin-resistant cancers” (Fundación Sales, priority 2011, dated 2018).

What was measured:
[1] = test system: primary cultures of responsive tumors; conditions: cited from earlier work
[2] = test system: BT-474 and T47D xenografts; conditions: 25 mg; mice treated with E2 followed by MPA; cited from earlier work
[3] = test system: MXT mouse model of breast cancer; conditions: 1 or 10 mg/kg/day from one day post-transplantation; cited from earlier work
59-HI tumors = test: Constitutive-resistant tumor transplanted s.c. in BALB/c mice; format: in vivo, mouse; conditions: RU-486 12 mg/kg/day s.c.; 5azadC 1 mg/kg every other day i.p.; 13 days
Procedure: (§1) C4-2-HI, 59-HI, and C4-HIR tumors were transplanted s.c nearby the mammary gland 4th in syngenic mice, and measured every 2 days (length and width). Treatments were initiated when the tumors were palpable. […] The mice were inoculated intraperitoneally (i.p.) with 0.75 mg/kg 5azadC (for C4-2-HI and C4-HIR tumors) or 1 mg/kg 5azadC (for 59-HI tumors) every other day. All the experiments were repeated twice using five mice per group. The animals were euthanized after 13 days of treatment, and tumor samples were removed and frozen at −80° C. or fixed in 10% formaldehyde.
(§2) Cytosolic or nuclear extracts were processed for western blots as described previously. The cells were lysed using Mammalian Protein Extraction Reagent (Pierce, Rockford, Ill.) according the manufacturer's instructions. The western blot membranes were incubated with antibodies against PR (C-19, Santa Cruz Biotech, CA, or Ab-7, Neomarkers, Lab Vision Corp, Fremont, Calif.), PRB (Ab-6, Neomarkers), ERKs (SC-94, Santa Cruz Biotech), E-Cad (610182, BD), Actin (1-19, Santa Cruz Biotech), DnmtI, Dnmt3a and Dnmt3b (H-300, H-295, and H-230, respectively, Santa Cruz Biotech), RARβ (SC-14028, Santa Cruz Biotech), PTEN Ab32199, Abcam), p16 (SC-1207, Santa Cruz Biotech), Rb (SC-50, Santa Cruz Biotech), or glucocorticoid receptors (GRs) (SC-1004, Santa Cruz Biotech) overnight at 4° C., at a concentration of 2 μg/ml in PBST (0.8% NaCl, 0.02% KCl, 0.144% Na2PO4, 0.024% KH2PO4, pH 7.4, 0.1% Tween 20). The band intensities from 3 to 4 different tumor samples indifferent western blots were quantified using Image Quant software.
(§3) Sections of formalin-fixed, paraffin-embedded tissue were processed as previously described and stained with the PRA-specific antibody (C-19) using the avidin-biotin-peroxidase complex technique (Vectastain Elite ABC kit; Vector), as described previously.
(§4) H&E stained sections of livers, spleens, and kidneys from the 5azadC-treated mice (1 mg/kg or 0.75 mg/kg/every other day; n=5) were studied by an expert mouse pathologist. The percentage of tumor stoma versus tumor parenchyma was quantified with the ImageJ software in treated and untreated tumors. The stromal area in relation to the total tumor area was calculated in five representative fields of each sample, using 400× magnification, in three different tumor samples of each group, and the mean±SEM was calculated. Mitotic and apoptotic indices were counted in 10 and 15 high-power fields (HPFs), respectively, of each section, using 1000× magnification, and expressed as the mean±SEM of the percentage of the ratios between the total number of events (mitosis or apoptosis) and the total cell number per HPF. Mitotic figures were identified morphologically by the condensed “hairy” aspect of the chromosomes. Morphological identification of apoptosis was performed according to criteria previously reported, which correlated with the deoxynucleotidyl transferase mediated dUTP-biotin nick end labeling (TUNEL) method.
as §1, with “C4-2-HI” for “C4-2-HI, 59-HI,”, “59-HI” for “C4-HIR”, “every other day” for “(for C4-2-HI”, “s.c. with” for “C4-HIR tumors) or”, “TSA” for “5azadC (for 59-HI tumors)”, “−80 C” for “−80° C.”

C4-2-HI tumors = test: as above; format: in vivo, mouse
Procedure: as §1, §2, §3, §4
as §1, with “C4-2-HI” for “C4-2-HI, 59-HI,”, “59-HI” for “C4-HIR”, “every other day” for “(for C4-2-HI”, “s.c. with” for “C4-HIR tumors) or”, “TSA” for “5azadC (for 59-HI tumors)”, “−80 C” for “−80° C.”

59-2-HI tumor = test: MPA breast cancer model, responsive tumor in vivo; conditions: mouse
HI-responsive tumors = conditions: daily doses of 10 mg/kg; cited from earlier work
C4-HIR cells = test: (3H)-thymidine uptake, primary cultures of purified epithelial cells; format: cell-based, mouse; conditions: 48 h, with MPA; P<0.001
Procedure: (§5) Epithelial cells and carcinoma-associated fibroblasts were separated by differential sedimentation and plated with 10% FCS. Carcinoma-associated fibroblasts were allowed to attach for 0.5 h and the epithelial cells for 24-48 h. The medium was replaced by fresh medium with 10% FCS; thereafter, it was changed every 2-3 days.
(§6) (3H)-thymidine-uptake was used as an indirect method to evaluate cell proliferation. In brief, cells were seeded into 96-well microplates. After attachment (24 h), the cells were incubated for 24 h with 1% steroid-stripped FCS and then for 48 h with the experimental solutions to be tested in 1% chFCS. Fifty percent of the medium was replaced with fresh medium every 24 h. The cells were incubated with 0.4 μCi of 3H-thymidine (specific activity: 20 Ci/mmol) for 24 h, trypsinized, and harvested in a cell harvester. In experiments in which 5azadC was used, the experiments were carried out using proliferating cells (presence of 10% FCS) to guarantee the effect of the demethylating agent. Three different experiments were made using octuplicates, and the means and standard deviations of one representative experiment of the other three are shown. The results are expressed as the proliferation index (cpm […] experimental group/cpm control; mean±SEM).

C4-HI cells = test: as above; format: cell-based, mouse; conditions: 48 h, with MPA; P<0.001
Procedure: as §5, §6

meningiomas = conditions: 200 mg/day for 2-31 months; after one year; cited from earlier work
MCF-7 xenografts = conditions: MIF 50 mg/kg/day, ONA 30 mg/kg/day, 17 days; cited from earlier work
[4] = test system: DMBA-induced mammary tumors; conditions: cited from earlier work
[5] = test system: mammary hyperplasias and carcinomas; conditions: pellets of 35 mg; cited from earlier work

Compound: CC#C[C@]1(O)CC[C@H]2[C@@H]3CCC4=CC(=O)CCC4=C3[C@@H](c3ccc(N(C)C)cc3)C[C@@]21C [RU-486, mifepristone]
- MPA-induced or FGF2-induced cell proliferation ([1]; 1-100 nM): inhibited MPA-induced or FGF2-induced cell proliferation
- cell proliferation at very low concentrations ([1]; 10-12 M): stimulate cell proliferation
- growth of xenografts [2]: prevent the growth
- tumor take and stimulatory effects of E2 and MPA [3]: inhibited both tumor take and the stimulatory effects of E2 and MPA
- tumor growth (59-HI tumors): no significant differences
- tumor growth (C4-2-HI tumors; RU-486 12 mg/kg/day s.c., 5azadC 0.75 mg/kg every other day i.p., 13 days): no significant differences
- tumor growth, MIF alone (C4-2-HI tumors; tumor only expresses PR-B, FIG. 15): stimulated
- tumor regression (histology) (59-2-HI tumor): the tumor regresses
- tumor regression (HI-responsive tumors): regress
- MPA-induced proliferative effect (C4-HIR cells): abolished
- MPA-induced proliferative effect (C4-HI cells): abolished
- tumor response (meningiomas): Five out of thirteen tumors responded
- E2-induced proliferation of xenografts (MCF-7 xenografts): inhibited
- tumor development ([4]; 10 mg/kg/day for 3 weeks): delayed tumor development
- tumor growth ([4]; 10 mg/kg/day for 3 weeks): inhibited tumor growth
- PR (and ER) expression ([4]; rat, in vivo): induced down regulation of the PR
- induction of hyperplasia or carcinoma [5]: prevented the induction of either hyperplasia or carcinoma
